Measurements taken from US9474736B2, “Composition and method for treating dry eye syndrome” (RAMSCOR, INC., priority 2008, dated 2016).
“Also recorded” adds a separate entry of the source.

What was measured:
[1] = Water evaporation from tocopherol/water emulsions; assay type: physicochemical; settings: uncapped vials, ambient conditions, nine days
Protocol: FIG. 3 is a bar graph depicting the percent water evaporation from a tocopherol/water emulsions at nine days, shown as the percent water lost.
Mixtures of α-tocopheryl acetate (EA), d-α-tocopheryl polyethylene glycol 1000 succinate (TPGS) and water were prepared at the ratios shown in Table 1, weighed, and placed in 20 ml-sized glass vials. Vials #1 through #6 were each capped and sonicated for two minutes to yield stable emulsions. The vials #1 through #8 were then uncapped and left at ambient conditions for nine days. All the emulsions in vials #1 through #6 remained stable. All vials were weighed subsequently to measure weight (water) loss. […] Results are also depicted in FIG. 3.

[2] = set-up: species or system New Zealand White (NZW) rabbits; settings: both, New Zealand White, rabbit, in vivo
Protocol: FIG. 2 is a graph showing the levels of α-tocopheryl acetate in the tears of rabbits over the course of seven days after the rabbits were administered one drop of α-tocopheryl acetate (3.6 mg, 3.9 mg, 5.4 mg, or 6.0 mg) on day one.
Four adult New Zealand White (NZW) rabbits (two females, two males) each weighing 4.5 kilo to 5.0 kilo were used in this example. One drop of α-tocopheryl acetate, each weighing 3.6 mg, 3.9 mg, 5.4 mg and 6.0 mg, was instilled onto one eye of each animal. Tear samples were collected daily by filter paper, weighed, eluted in 300 μl MeOH and analyzed for tocopheryl acetate (EA) by LC/MS/MS. Detected tear levels of EA over a seven-day period ranged from 15 μg/ml to 36 μg/ml with a mean of 26 μg/ml (26,000 ng/ml). Detectable levels of EA in the cul-de-sac of the rabbit eye may last beyond seven days.

[3] = Water or saline stably absorbed in α-tocopheryl acetate (evaporative weight loss); assay type: physicochemical; settings: sealed vials, 30° C., after 12 hrs
Protocol: In an alternative study, the concentrations of water or saline that would remain stably absorbed in α-tocopheryl acetate (EA) were examined. Equal volumes of water or 0.9% saline were placed with EA in sealed vials at 30° C. Samples of the resultant EA plus absorbed aqueous were removed at several time points and the water contents were assayed by evaporative weight loss to constant weight over time at 30° C. open to the air. After 12 hrs exposure of EA to water or the saline solution in sealed vials at 30° C. the maximum amounts of aqueous solutions absorbed in EA were reached. The resultant values were: 0.3% water absorbed and 0.6% saline solution absorbed.

CDE symptoms = assay: Alleviation of CDE symptoms in contact lens-wearing individual, subjective comfort; assay type: in vivo, human
From the text: FIG. 1 is a bar graph depicting the subjective comfort of an individual applying a drop of α-tocopheryl acetate into the eye(s) before bedtime preceding the days indicated. Subjective comfort is depicted on a scale of 1 to 10; with 1 being very irritated, and right eye feeling swollen; and 10 being very comfortable and tolerable compared to no drops.
A volunteer used one drop of α-tocopheryl acetate in one or more eyes at night, and reported the irritation or comfort on a subjective scale of 1-to-10, (maximum irritation “1”, maximum comfort “10”) as shown in FIG. 1. At days 1 to 5, the individual placed one drop in the right eye only.

dry eye syndrome = assay: Topical application of α-tocopheryl acetate eyedrop in human volunteers with dry eye symptoms; settings: for duration of relief from dry eye symptoms: one drop about 50 μl

| g wt loss [1] | detected tear levels of EA, mean [2] | maximum saline solution absorbed in EA ([3]; equal volumes 0.9% saline and EA) [%] | maximum water absorbed in EA ([3]; equal volumes water and EA) [%] | Compound | ability to wear contact lenses (CDE symptoms; days 30-38, eyedrops not applied every single night) | duration of comfort before re-applying eyedrops (CDE symptoms; volunteer, one drop at night) | irritation or blurred vision reported (dry eye syndrome; one drop about 50 μl in eye, two human volunteers) | duration of relief from dry eye symptoms (dry eye syndrome; no repeat applications, both volunteers) | duration of relief from dry eye symptoms (dry eye syndrome; one subject) |
| --- | --- | --- | --- | --- | --- | --- | --- | --- | --- |
| lost no weight | – | – | – | CC(=O)Oc1c(C)c(C)c2c(c1C)CCC(C)(CCC[C@H](C)CCC[C@H](C)CCCC(C)C)O2 (stereo partly drawn) [vial 8, α-tocopheryl acetate] | – | – | – | – | – |
| – | 26,000 ng/ml | 0.6 | 0.3 | CC(=O)Oc1c(C)c(C)c2c(c1C)CCC(C)(CCC[C@H](C)CCC[C@H](C)CCCC(C)C)O2 (stereo partly drawn) [α-tocopheryl acetate] | able to wear contact lenses (days 30-38) in relative comfort | up to five days | No irritation or blurred vision | several days; also recorded: at least one day | at least seven days |
